# Experimental data taken from publication PMC8597786 (Antimicrobial Agents and Chemotherapy, 2021).
# Where two headings read alike, the source gives them in different places.
# Tests used:
# Assay in all cases: microbe, parasite or virus in culture
# [1] = test system: SARS-CoV-2 (USA-WA1/2020 variant); format: cell-based
# [2] = test system: SARS-CoV-2 variant B.1.351; format: cell-based, SARS-CoV-2 B.1.351; conditions: for EC50: Severe acute respiratory syndrome coronavirus 2, Vero C1008, 96 h, 4 days, read-out: EC50 for CPE scoring-based assay for B.1.351
# [3] = test system: SARS-CoV-2 (USA-WA1/2020 variant); format: cell-based; conditions: Severe acute respiratory syndrome coronavirus 2, Vero C1008, 96 h; 4 days; read-out: EC50: viability restoration in infected cells for WA1/2020
# [4] = test system: SARS-CoV-2 variant B.1.1.7; format: cell-based, SARS-CoV-2 B.1.1.7
# [5] = test system: SARS-CoV-2 (USA-WA1/2020 variant); format: cell-based; conditions: for EC50: Severe acute respiratory syndrome coronavirus 2, Vero C1008, 48 h, read-out: EC50: yield reduction assay for WA1/2020
# [6] = test system: SARS-CoV-2 variant B.1.351; format: cell-based, SARS-CoV-2 B.1.351
# [7] = test system: SARS-CoV-2 variant B.1.1.7; conditions: for EC50: Severe acute respiratory syndrome coronavirus 2, Vero C1008, 168 h, read-out: EC50: viability restoration in infected cells for B.1.1.7
# [8] = test system: SARS-CoV-2 variant B.1.351; format: cell-based, SARS-CoV-2 B.1.351; conditions: Severe acute respiratory syndrome coronavirus 2, Vero C1008, 168 h, read-out: EC50: viability restoration in infected cells for B.1.351
# [9] = test system: SARS-CoV-2 variant B.1.1.7; format: cell-based, SARS-CoV-2 B.1.1.7; conditions: Severe acute respiratory syndrome coronavirus 2, Vero C1008, 96 h; 4 days; read-out: EC50 for CPE scoring-based assay for B.1.1.7
# [10] = Severe acute respiratory syndrome coronavirus 2, Vero C1008, 96 h, 4 days, read-out: EC50 for CPE scoring-based assay for WA1/2020
# [11] = Severe acute respiratory syndrome coronavirus 2, Vero C1008, read-out: EC50s, range over cytopathic effect and yield reduction assays
Structure (SMILES),EC50 [2],EC50 [3],"% infected, Average ([5]; 1 μM)","% infected, Average ([5]; 3 μM)","% infected, Average ([5]; 10 μM)","% infected, Average ([5]; 30 μM)","% infected, Average ([5]; 50 μM)",EC50 [5],"EC50 [1, 10]","EC50 [1, 11]",EC50 [7],EC50 [8],EC50 [9],other results
"CC(C)C[C@H](NC(=O)OCc1ccccc1)C(=O)N[C@@H](CC1CCNC1=O)C(O)S(=O)(=O)O (stereo partly drawn) [GC-376, reference compound]",–,–,–,–,–,–,–,–,–,–,–,–,–,"EC50 ([1]; 4 days, read-out: EC50 for CPE scoring-based assay for WA1/2020): 3.9 µM"
"Oc1ccc([C@@H]2c3c(O)cc(O)cc3[C@@H]3c4c(cc(O)cc4[C@H]2[C@@H]2c4cc(O)cc5c4[C@@H](c4cc(O)cc(O)c4[C@H]2c2ccc(O)cc2)[C@H](c2ccc(O)cc2)O5)O[C@H]3c2ccc(O)cc2)cc1 [Hopeaphenol, (–)-hopeaphenol]",2.3 µM,23.4 µM,29.2%,23.0%,18.7%,11.5%,3.6%,13.5 µM,10.2 µM,10.2 to 23.4 µM,7.8 µM,7.5 µM,14.8 µM,"Fold improved activity against B.1.351 over USA-WA1/2020 (CPE EC50) [2]: 4.5 fold; % infected, Average ([4]; 3 μM): 12.1%; % infected, Average ([4]; 10 μM): 10.4%; % infected, Average ([4]; 20 μM): 6.7%; % infected, Average ([4]; 50 μM): 0.0%; EC50 ([4]; Severe acute respiratory syndrome coronavirus 2, Vero C1008, 48 h, read-out: EC50: yield reduction assay for B.1.1.7): 11.4 µM; % infected, Average ([6]; 3 μM): 20.6%; % infected, Average ([6]; 10 μM): 11.6%; % infected, Average ([6]; 20 μM): 9.9%; % infected, Average ([6]; 50 μM): 0.1%; EC50 ([6]; Severe acute respiratory syndrome coronavirus 2, Vero C1008, 48 h, read-out: EC50: yield reduction assay for B.1.351): 8.8 µM; EC50 ([1]; Severe acute respiratory syndrome coronavirus 2, read-out: EC50s in infectious viral assays, range): 2.3 to 23.4 µM"
"CCC(CC)COC(=O)[C@H](C)N[P@](=O)(OC[C@H]1O[C@@](C#N)(c2ccc3c(N)ncnn23)[C@H](O)[C@@H]1O)Oc1ccccc1 [Remdesivir, remdesivir, reference compound]",1.4 µM,7.3 µM,13.5%,8.5%,0.0%,–,–,1 µM,2.5 µM,1 to 7.3 µM,> 10 µM,> 10 µM,1.5 µM,"% infected, Average ([5]; 0.3 μM): 21.0%"
"Oc1ccc(/C=C/c2cc(O)cc(O)c2)cc1 [Resveratrol, resveratrol, reference compound]",–,> 50 µM,–,–,–,–,–,–,> 100 µM,–,–,–,–,–
"OC[C@H]1O[C@@H](Oc2cc3c4c(c2)[C@@H]([C@@H]2c5cc(O)cc6c5[C@@H](c5cc(O)cc(O)c5[C@H]2c2ccc(O)cc2)[C@H](c2ccc(O)cc2)O6)[C@H](c2ccc(O)cc2)c2c(O)cc(O)cc2[C@H]4[C@H](c2ccc(O)cc2)O3)[C@H](O)[C@@H](O)[C@@H]1O [Vatalbinoside A, vatalbinoside A]",3.6 µM,18.8 µM,17.1%,17.8%,16.7%,9.9%,11.2%,19.1 µM,13.8 µM,–,> 50 µM,11.3 µM,4 µM,"viability at 20 µM ([7]; Severe acute respiratory syndrome coronavirus 2, read-out: Restored viability in B.1.1.7-infected cells): ≤ 51.2%"
"Oc1ccc([C@@H]2c3c(O)cc(O)cc3[C@@H]3c4c(cc(O)c5c4[C@@H]2[C@H](c2ccc(O)cc2)[C@H]5c2cc(O)cc4c2[C@@H](c2cc(O)cc(O)c2)[C@H](c2ccc(O)cc2)O4)O[C@H]3c2ccc(O)cc2)cc1 [Vaticanol B, vaticanol B]",25.3 µM,> 50 µM,–,–,30.0%,26.8%,16.9%,> 50 µM,37 µM,–,> 50 µM,> 50 µM,32.4 µM,–
